Measurements: patent US4868321A, “Isothiocyanate intermediates” (FMC Corporation, priority 1988, dated 1989)

What was measured:
Type in all cases: in vivo
Cotton [1] = test: Preemergence Herbicidal Activity, Cotton; conditions: Gossypium hirsutum, pre-emergence; for plant injury at 500 g/ha: 0.5 kg/ha
Source text: (§1) The herbicidal data in the following Tables 3 and 4 was obtained in the manner described in PCT published application no. WO 85/01939, previously mentioned, usually employing solutions of the herbicidal compound in 50/50 acetone/water mixtures. In those tables, the test compounds are identified by numbers which correspond to those in Table 1, "kg/ha" is kilograms per hectare, and "% C" is percent control.

Soybean [2] = test: Preemergence Herbicidal Activity, Soybean; conditions: Glycine max, pre-emergence; for plant injury at 500 g/ha: 0.5 kg/ha
Source text: (§2) The herbicidal data in the following Tables 3 and 4 was obtained in the manner described in PCT published application no. […] In those tables, the test compounds are identified by numbers which correspond to those in Table 1, "kg/ha" is kilograms per hectare, and "% C" is percent control.

Field Corn [3] = test: Preemergence Herbicidal Activity, Field Corn; conditions: Zea mays, pre-emergence; for plant injury at 500 g/ha: 0.5 kg/ha
Source text: as §2

Rice [4] = test: Preemergence Herbicidal Activity, Rice; conditions: Oryza sativa, pre-emergence; for plant injury at 500 g/ha: 0.5 kg/ha
Source text: as §2

Wheat [5] = test: Preemergence Herbicidal Activity, Wheat; conditions: Triticum aestivum, pre-emergence; for plant injury at 500 g/ha: 0.5 kg/ha
Source text: as §2

Field Bindweed [6] = test: Preemergence Herbicidal Activity, Field Bindweed; conditions: pre-emergence; for pest or weed control at 500 g/ha: 0.5 kg/ha
Source text: as §1

Morningglory [7] = test: Preemergence Herbicidal Activity, Morningglory; conditions: Ipomoea, pre-emergence; for pest or weed control at 500 g/ha: 0.5 kg/ha
Source text: as §1

Velvetleaf [8] = test: Preemergence Herbicidal Activity, Velvetleaf; conditions: Abutilon theophrasti, pre-emergence; for pest or weed control at 500 g/ha: 0.5 kg/ha
Source text: as §1

Barnyardgrass [9] = test: Preemergence Herbicidal Activity, Barnyardgrass; conditions: Echinochloa crus-galli, pre-emergence; for pest or weed control at 500 g/ha: 0.5 kg/ha
Source text: as §2

Green Foxtail [10] = test: Preemergence Herbicidal Activity, Green Foxtail; conditions: Setaria viridis, pre-emergence; for pest or weed control at 500 g/ha: 0.5 kg/ha
Source text: as §2

Johnsongrass [11] = test: Preemergence Herbicidal Activity, Johnsongrass; conditions: Sorghum halepense, pre-emergence; for pest or weed control at 500 g/ha: 0.5 kg/ha
Source text: as §2

Cotton [12] = test: Postemergence Herbicidal Activity, Cotton; conditions: Gossypium hirsutum, post-emergence; for plant injury at 500 g/ha: 0.5 kg/ha
Source text: as §1

Soybean [13] = test: Postemergence Herbicidal Activity, Soybean; conditions: Glycine max, post-emergence; for plant injury at 500 g/ha: 0.5 kg/ha
Source text: as §2

Field Corn [14] = test: Postemergence Herbicidal Activity, Field Corn; conditions: Zea mays, post-emergence; for plant injury at 500 g/ha: 0.5 kg/ha
Source text: as §2

Rice [15] = test: Postemergence Herbicidal Activity, Rice; conditions: Oryza sativa, post-emergence; for plant injury at 500 g/ha: 0.5 kg/ha
Source text: as §2

Wheat [16] = test: Postemergence Herbicidal Activity, Wheat; conditions: Triticum aestivum, post-emergence; for plant injury at 500 g/ha: 0.5 kg/ha
Source text: as §2

Field Bindweed [17] = test: Postemergence Herbicidal Activity, Field Bindweed; conditions: post-emergence; for pest or weed control at 500 g/ha: 0.5 kg/ha
Source text: as §1

Morningglory [18] = test: Postemergence Herbicidal Activity, Morningglory; conditions: Ipomoea, post-emergence; for pest or weed control at 500 g/ha: 0.5 kg/ha
Source text: as §1

Velvetleaf [19] = test: Postemergence Herbicidal Activity, Velvetleaf; conditions: Abutilon theophrasti, post-emergence; for pest or weed control at 500 g/ha: 0.5 kg/ha
Source text: as §1

Barnyardgrass [20] = test: Postemergence Herbicidal Activity, Barnyardgrass; conditions: Echinochloa crus-galli, post-emergence; for pest or weed control at 500 g/ha: 0.5 kg/ha
Source text: as §2

Green Foxtail [21] = test: Postemergence Herbicidal Activity, Green Foxtail; conditions: Setaria viridis, post-emergence; for pest or weed control at 500 g/ha: 0.5 kg/ha
Source text: as §2

Johnsongrass [22] = test: Postemergence Herbicidal Activity, Johnsongrass; conditions: Sorghum halepense, post-emergence; for pest or weed control at 500 g/ha: 0.5 kg/ha
Source text: as §2

CS(=O)(=O)N(c1cc(-n2nnn(CCCF)c2=O)c(F)cc1F)S(C)(=O)=O [Compound 8, 1-[2,4-difluoro-5-[bis(N--methylsulfonyl)amino]phenyl]-1,4-dihydro-4-(3-fluoropropyl)-5H--tetrazol-5-one]
95%: plant injury at 500 g/ha (Cotton [1]) | plant injury at 500 g/ha (Cotton [12]) | pest or weed control at 500 g/ha (Velvetleaf [19])
60%: pest or weed control at 500 g/ha (Morningglory [7])
70%: plant injury at 500 g/ha (Rice [4])
10%: plant injury at 500 g/ha (Wheat [5])
50%: pest or weed control at 500 g/ha (Green Foxtail [10]) | pest or weed control at 500 g/ha (Johnsongrass [11]) | plant injury at 500 g/ha (Field Corn [14]) | pest or weed control at 500 g/ha (Green Foxtail [21])
20%: plant injury at 500 g/ha (Rice [15])
40%: plant injury at 500 g/ha (Field Corn [3]) | pest or weed control at 500 g/ha (Field Bindweed [6]) | pest or weed control at 500 g/ha (Barnyardgrass [9]) | plant injury at 500 g/ha (Soybean [13]) | pest or weed control at 500 g/ha (Morningglory [18]) | pest or weed control at 500 g/ha (Barnyardgrass [20])
100%: pest or weed control at 500 g/ha (Velvetleaf [8])
30%: plant injury at 500 g/ha (Soybean [2]) | plant injury at 500 g/ha (Wheat [16]) | pest or weed control at 500 g/ha (Field Bindweed [17]) | pest or weed control at 500 g/ha (Johnsongrass [22])

CS(=O)(=O)N(c1cc(-n2nnn(CCCF)c2=O)c(F)cc1Br)S(C)(=O)=O [Compound 10, 1-(4-bromo-2-fluoro-5-[bis(N--methylsulfonyl)amino]phenyl]-1,4-dihydro-4-(3-fluoropropyl)-5H--tetrazol-5-one]
80%: plant injury at 1000 g/ha (Soybean [2]; 1.0 kg/ha)
60%: plant injury at 1000 g/ha (Wheat [16]; 1.0 kg/ha)
90%: plant injury at 1000 g/ha (Wheat [5]; 1.0 kg/ha) | plant injury at 1000 g/ha (Field Corn [14]; 1.0 kg/ha)
30%: plant injury at 1000 g/ha (Rice [15]; 1.0 kg/ha)
95%: plant injury at 1000 g/ha (Field Corn [3]; 1.0 kg/ha) | plant injury at 1000 g/ha (Rice [4]; 1.0 kg/ha) | pest or weed control at 1000 g/ha (Johnsongrass [11]; 1.0 kg/ha) | plant injury at 1000 g/ha (Soybean [13]; 1.0 kg/ha)
100%: plant injury at 1000 g/ha (Cotton [1]; 1.0 kg/ha) | pest or weed control at 1000 g/ha (Field Bindweed [6]; 1.0 kg/ha) | pest or weed control at 1000 g/ha (Morningglory [7]; 1.0 kg/ha) | pest or weed control at 1000 g/ha (Velvetleaf [8]; 1.0 kg/ha) | pest or weed control at 1000 g/ha (Barnyardgrass [9]; 1.0 kg/ha) | pest or weed control at 1000 g/ha (Green Foxtail [10]; 1.0 kg/ha) | plant injury at 1000 g/ha (Cotton [12]; 1.0 kg/ha) | pest or weed control at 1000 g/ha (Field Bindweed [17]; 1.0 kg/ha) | pest or weed control at 1000 g/ha (Morningglory [18]; 1.0 kg/ha) | pest or weed control at 1000 g/ha (Velvetleaf [19]; 1.0 kg/ha) | pest or weed control at 1000 g/ha (Barnyardgrass [20]; 1.0 kg/ha) | pest or weed control at 1000 g/ha (Green Foxtail [21]; 1.0 kg/ha) | pest or weed control at 1000 g/ha (Johnsongrass [22]; 1.0 kg/ha)

CCS(=O)(=O)N(C)c1cc(-n2nnn(CCCF)c2=O)c(F)cc1Cl [Compound 12, 1-[4-chloro-2-fluoro-5-[(N--ethylsulfonyl-N--methyl)amino]phenyl]-1,4-dihydro-4-(3-fluoropropyl)-5H--tetrazol-5-one]
30%: plant injury at 500 g/ha (Rice [15])
100%: plant injury at 500 g/ha (Cotton [1]) | plant injury at 500 g/ha (Field Corn [3]) | plant injury at 500 g/ha (Wheat [5]) | pest or weed control at 500 g/ha (Field Bindweed [6]) | pest or weed control at 500 g/ha (Morningglory [7]) | pest or weed control at 500 g/ha (Velvetleaf [8]) | pest or weed control at 500 g/ha (Barnyardgrass [9]) | pest or weed control at 500 g/ha (Green Foxtail [10]) | pest or weed control at 500 g/ha (Johnsongrass [11]) | plant injury at 500 g/ha (Cotton [12]) | pest or weed control at 500 g/ha (Field Bindweed [17]) | pest or weed control at 500 g/ha (Morningglory [18]) | pest or weed control at 500 g/ha (Velvetleaf [19])
70%: plant injury at 500 g/ha (Soybean [13]) | plant injury at 500 g/ha (Field Corn [14]) | pest or weed control at 500 g/ha (Barnyardgrass [20]) | pest or weed control at 500 g/ha (Green Foxtail [21]) | pest or weed control at 500 g/ha (Johnsongrass [22])
90%: plant injury at 500 g/ha (Rice [4])
80%: plant injury at 500 g/ha (Soybean [2]) | plant injury at 500 g/ha (Wheat [16])
